Measured values from patent USRE42700E1, “Induction of apoptosis in cancer cells” (Sanford-Burnham Medical Research Institute, priority 2001, dated 2011).

What was measured:
[1] = tested on: cancer cells; test: mitochondrial membrane potential (Δψm) using Rh123; format: cell-based; conditions: 10^−6 M
[2] = tested on: ERK, p38 and JNK kinases in M07e and patient leukemic cells; test: activation of MAPK pathways (phospho-p38, phospho-ERK, phospho-JNK Western blots); format: cell-based, human; conditions: 1 μM
Method: (§1) Western Blots: Western blots were performed according to the protocol of Sheikh, M. S., et al., (Oncogene, 9: 3407-3415 (1994)). Logarithmically growing cells were treated with 3-Cl-AHPC for various times and cells were harvested and lysed in Laemmli lysis buffer (0.5 M Tris-HCl, pH 6.8, 0.002M EDTA, 10% glycerol, 10% sodium dodecyl sulfate (SDS), and 5% β-mercaptoethanol). Protein lysates (50 μg/lane) were electrophoresed on 12% SDS-polyacrylamide gels and transferred to nitrocellulose membranes. Membranes were blocked with 5% nonfat dried milk in PBS/0.5% Tween 20 and then incubated with the appropriate antibodies. Horseradish peroxidase-conjugated rabbit anti-mouse IgG was used as the secondary antibody, and bands were developed using the Amersham ECL non-radioactive method.

[3] = tested on: Bcl-XL in leukemic cells; test: Bcl-XL cleavage by Western blot; format: cell-based, human; conditions: 1 μM
Method: as §1

[4] = tested on: Murine AML 1498 cells; test: murine AML 1498 implanted intravenously in C57BL/6 mice
Description: Tumor Maintenance: Murine AML1498 cells were maintained in the mouse strain of origin (C57BL/6) and transplanted into this same inbred strain chemotherapy trials. Individual mouse body weights for each experiment were within five grams, and all mice were more than 20 grams (mean) at the start of therapy. Mice were supplied food and water ad libitum.
Treatment was started the day after implantation of AML cells.
End Points for Assessing Antitumor Activity: The following quantitative endpoints were used to assess antitumor activity
a) Percent Increase in Lifespan (% ILS): For leukemic mice: • % ILS=(T−C)/C×100; in which C=median day of death of control group and T=median day of death of treated group. Survival was the endpoint; with moribund mice sacrificed. Cause of death was verified by necropsy.
b) Calculation of Tumor Cell Kill: For leukemic survival trials, the log10 cell kill was calculated from the following formula:
[formula] where T is median day of death for treated group and C is median day of death for control group (Corbett, T. H., et al., Invest. New Drugs, 17: 17-27 (1999) and Teicher, B. A., In vivo tumor response end points, In Tumor Models in Cancer Research, B. Teicher, editor, Humana Press Inc./Totowa, N.J., pp. 593-616 (2001)). Td is determined from differences in the median days of death of the titered control groups.

[5] = tested on: patient leukemic cells; test: apoptosis of patient leukemic cells by tunnel assay and flow cytometry; format: cell-based, human; conditions: for apoptotic cells: 1 μM, 24 hours
Method: (§2) Apoptosis Quantification: Staining of apoptotic cells was performed as described by Gavreli, Y., et al., (J. Cell. Biol. 119: 493-501 (1992)) and Whitacre, C. M., et al., (Cancer Res. 55: 3697-3701 (1995)). After 3-Cl-AHPC treatment, cells were harvested, washed with PBS and resuspended at 1×10^6 cells/ml. Cell suspensions (50 μl) were stained with […] of acridine orange solution ([…]) in PBS in the dark. Cells displaying fragmented DNA were detected using a fluorescent microscope. Apoptotic cells were also detected using a kit. Cells that incorporated fluorescein labeled deoxyuridine triphosphate were detected using flow cytometry.
Flow Cytometry: Flow cytometry was performed on a flow cytometer equipped with an argon ion laser tuned to 15 mW at […] for fluorescence excitation and light scattering. Fluorescein isothiocyanate (FITC) fluorescence was detected using a 530/30 nm band pass filter and propidium iodide (PI) fluorescence was reflected with a 560-nm short pass dichroic filter using a 585/42-nm band pass filter. The doublet discrimination module was used to identify cell aggregates (Sharpless, T., et al., Acta Cytologica 19: 577-581 (1975)). Typically, 20,000 events of list mode data were saved and analyzed.

[6] = target: RARβ (Homo sapiens, UniProt P10826); test: activation of RARβ on the (TREpal)2-tk-CAT reporter construct; format: cell-based; conditions: 1.0 μM
[7] = tested on: prostate cancer LNCaP, lung cancer NCI-H460, breast cancer ZR-75-1 and MDA-MB231 cells; test: DAPI staining apoptosis in cancer cell lines; format: cell-based; conditions: 10^−6 M
Method: In FIG. 11, the indicated cancer cells were treated with 10^−6 M 3-Cl-AHPC, trypsinized, washed with PBS, fixed with 3.7% paraformaldehyde, and stained with 50 μg/ml DAPI containing 100 μg/ml DNase-free RNase A to visualize nuclei by fluorescent microscopy. The number of apoptotic cells with nuclear morphology typical of apoptosis, including nuclear fragmentation and condensation, was scored in at least 400 cells in each sample using a fluorescence microscope. In FIG. 12, the indicated cancer cells were treated with 10^−6 M 3-Cl-AHPC, trypsinized, washed with PBS, fixed with 3.7% paraformaldehyde, and stained with 50 μg/ml DAPI containing 100 μg/ml DNase-free RNase A to visualize nuclei and examined by fluorescent microscopy. Number of apoptotic cells with nuclear morphology typical of apoptosis, including nuclear fragmentation and condensation, was scored in at least 400 cells in each sample using a fluorescence microscope.

[8] = target: RXRα (Homo sapiens, UniProt P19793); test: activation of RXRα on the (TREpal)2-tk-CAT reporter construct; format: cell-based; conditions: 1.0 μM
[9] = tested on: human acute megakaryocytic leukemia cell line M07e; test: M07e apoptosis quantification; format: cell-based
Method: as §2

[10] = tested on: Bcl-2 and Mcl-1 in patient leukemic cells and M07e cells; test: Bcl-2 and Mcl-1 expression; format: cell-based, human; conditions: during 3-Cl-AHPC-mediated apoptosis
Method: as §1

[11] = total dose 80 mg/kg, qd 1-5, 5 × 10^6 cells
[12] = total dose 115 mg/kg, qd 1-5, 5 × 10^6 cells
[13] = total dose 140 mg/kg, qd 1-4, 5 × 10^6 cells

Sequence of RXRα (P19793 whole entry): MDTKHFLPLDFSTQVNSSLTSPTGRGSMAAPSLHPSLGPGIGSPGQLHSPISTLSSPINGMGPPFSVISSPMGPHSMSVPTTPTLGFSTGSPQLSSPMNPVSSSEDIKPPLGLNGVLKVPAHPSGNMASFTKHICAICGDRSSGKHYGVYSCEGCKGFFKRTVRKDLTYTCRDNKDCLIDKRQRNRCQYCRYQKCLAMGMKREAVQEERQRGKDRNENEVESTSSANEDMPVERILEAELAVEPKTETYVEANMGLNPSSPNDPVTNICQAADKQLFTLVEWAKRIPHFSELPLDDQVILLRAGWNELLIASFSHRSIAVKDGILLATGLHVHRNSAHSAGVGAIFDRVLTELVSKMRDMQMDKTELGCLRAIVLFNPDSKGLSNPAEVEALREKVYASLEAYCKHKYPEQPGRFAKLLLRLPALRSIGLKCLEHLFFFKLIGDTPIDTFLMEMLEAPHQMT
Sequence of RARβ (P10826 whole entry, species assumed): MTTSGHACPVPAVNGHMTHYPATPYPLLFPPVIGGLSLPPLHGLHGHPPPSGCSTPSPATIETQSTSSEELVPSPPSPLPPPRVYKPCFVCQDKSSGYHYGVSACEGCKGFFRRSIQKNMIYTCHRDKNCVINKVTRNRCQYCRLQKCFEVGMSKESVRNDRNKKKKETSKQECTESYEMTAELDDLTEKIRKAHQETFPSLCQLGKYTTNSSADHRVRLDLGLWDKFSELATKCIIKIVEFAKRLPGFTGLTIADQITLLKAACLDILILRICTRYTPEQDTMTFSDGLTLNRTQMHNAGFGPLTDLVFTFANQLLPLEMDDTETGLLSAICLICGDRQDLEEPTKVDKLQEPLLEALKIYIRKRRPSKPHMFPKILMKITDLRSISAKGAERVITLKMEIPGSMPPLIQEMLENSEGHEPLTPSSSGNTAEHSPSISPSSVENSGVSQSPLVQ

O=C(O)/C=C/c1ccc(-c2ccc(O)c(C34CC5CC(CC(C5)C3)C4)c2)c(Cl)c1 [Example 3-Cl-AHPC, (E)-4-[3-(1-Adamantyl)-4-hydroxyphenyl]-3-chlorocinnamic acid]
percentage of cells with Δψm loss [1]: significant increases in the percentage of cells with Δψm loss
activation of ERK, p38 and JNK kinases [2]: inactivation of ERK, p38 and JNK kinases
Bcl-XL cleavage [3]: cleavage of Bcl-XL to a 18-kD product
animal deaths ([4]; 140 mg/kg total dose over four days): no animal deaths
Body Wt. Loss [4, 11]: +0.0%
ILS [4, 11]: 50%
Log cell kill [4, 11]: 2.6
Mean Body Wt. Loss [4, 11]: +0.0 g/mouse
Median Day of Tumor Death (range) [4, 11]: 9 (8,9,9,9,10)
ILS [4, 12]: 83%
Log cell kill [4, 12]: 3.3
Median Day of Tumor Death (range) [4, 12]: 11 (10,10,11,11,11)
Mean Body Wt. Loss ([4]; total dose 115 mg/kg, qd 1-5, 5 × 10^6 cells, negative = loss): −1.2 g/mouse
ILS [4, 13]: 83%
Log cell kill [4, 13]: 3.3
Median Day of Tumor Death (range) [4, 13]: 11(10,11,11,11,11)
Mean Body Wt. Loss ([4]; total dose 140 mg/kg, qd 1-4, 5 × 10^6 cells, negative = loss): −3.6 g/mouse
patient leukemic cells that underwent apoptosis [5]: over 80%
apoptotic cells ([5]; patient 1): 67%
apoptotic cells ([5]; patient 10): 80%
activation of RARβ [6]: does not activate
induction of apoptosis (DAPI staining) [7]: potently induced apoptosis
activation of RXRα [8]: does not activate
apoptosis ([9]; 0.2 μM): no significant increase in apoptosis
apoptosis ([9]; 0.5 and 1.0 μM): onset of apoptosis
concentration required to induce apoptosis ([9]; M07e cells): 0.5 µM
modulation of Bcl-2 and Mcl-1 expression [10]: no modulation of their expression
